In ChEMBL document CHEMBL1133879, “Nicotinamide N-oxides as CXCR2 antagonists” (Bioorg Med Chem Lett, 2001):

Key:
[1] = species on record: Homo sapiens; assay: Ability to block GRO-alpha driven human neutrophil chemotaxis; assay type: functional, organism-based
[2] = biological target: T1, C-X-C chemokine receptor type 2 (Homo sapiens, UniProt P25025); assay: Evaluated using an SPA assay with recombinant human [125I]IL-8 and membranes prepared from Sf9 cells expressing human CXCR2
T1 sequence (P25025 whole entry): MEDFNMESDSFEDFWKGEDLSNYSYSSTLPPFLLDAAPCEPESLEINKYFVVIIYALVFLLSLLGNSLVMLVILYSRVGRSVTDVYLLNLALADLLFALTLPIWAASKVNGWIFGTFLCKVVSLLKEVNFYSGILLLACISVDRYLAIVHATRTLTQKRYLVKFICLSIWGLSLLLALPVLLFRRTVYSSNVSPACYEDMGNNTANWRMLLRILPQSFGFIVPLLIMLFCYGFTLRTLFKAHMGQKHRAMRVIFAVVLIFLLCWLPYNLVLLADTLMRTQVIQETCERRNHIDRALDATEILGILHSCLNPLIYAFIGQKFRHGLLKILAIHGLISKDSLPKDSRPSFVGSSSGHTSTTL

[3] = biological target: T2, Neuropeptide Y receptor type 1 (Homo sapiens) (UniProt P25929); assay: Displacement of [125I]-peptide YY (PYY) from SK-N-MC (human neuroblastoma) cell membrane expressing human Neuropeptide Y receptor type 1; parameters: concentration or dose not given beside the values; details: concentration not given here
T2 sequence (whole entry): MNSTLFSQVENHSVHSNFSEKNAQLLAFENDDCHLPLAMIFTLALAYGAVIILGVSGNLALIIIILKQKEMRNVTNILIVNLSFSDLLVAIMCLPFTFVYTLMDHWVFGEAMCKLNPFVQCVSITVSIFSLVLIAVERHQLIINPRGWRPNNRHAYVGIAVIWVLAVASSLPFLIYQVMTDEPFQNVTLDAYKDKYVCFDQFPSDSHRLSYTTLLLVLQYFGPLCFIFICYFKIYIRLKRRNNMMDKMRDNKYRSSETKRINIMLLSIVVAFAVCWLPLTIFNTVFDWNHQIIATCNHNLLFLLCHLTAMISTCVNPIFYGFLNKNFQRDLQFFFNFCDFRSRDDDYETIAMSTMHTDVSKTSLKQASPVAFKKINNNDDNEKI

[4] = biological target: T3, C-X-C chemokine receptor type 2 (Homo sapiens) (UniProt P25025); assay: Displacement of [125I]IL-8 from CHO cell membrane expressing human CXCR2 receptor at a concentration of 20 uM; assay type: cell membranes
T3 sequence (whole entry): T1 sequence (P25025 whole entry)

[5] = biological target: T4, C-X-C chemokine receptor type 1 (Homo sapiens) (UniProt P25024); assay: Displacement of [125I]IL-8 from CHO cell membrane expressing human CXCR1 receptor at a concentration of 20 uM; assay type: cell membranes
T4 sequence (whole entry): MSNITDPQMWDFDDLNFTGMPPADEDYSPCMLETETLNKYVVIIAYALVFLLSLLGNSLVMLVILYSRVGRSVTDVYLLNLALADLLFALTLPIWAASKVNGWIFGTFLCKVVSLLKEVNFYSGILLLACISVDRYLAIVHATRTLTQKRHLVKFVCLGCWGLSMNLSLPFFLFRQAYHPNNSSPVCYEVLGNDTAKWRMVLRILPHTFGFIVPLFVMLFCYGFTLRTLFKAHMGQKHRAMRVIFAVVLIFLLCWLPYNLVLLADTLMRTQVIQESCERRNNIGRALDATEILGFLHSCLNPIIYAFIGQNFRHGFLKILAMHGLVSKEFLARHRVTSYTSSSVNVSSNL

[6] = biological target: T5, Endothelin receptor type B (Homo sapiens) (UniProt P24530); assay: Displacement of [125I]endothelin from CHO cell membrane expressing human Endothelin B receptor; assay type: cell membranes; parameters: concentration or dose not given beside the values; details: concentration not given here
T5 sequence (whole entry): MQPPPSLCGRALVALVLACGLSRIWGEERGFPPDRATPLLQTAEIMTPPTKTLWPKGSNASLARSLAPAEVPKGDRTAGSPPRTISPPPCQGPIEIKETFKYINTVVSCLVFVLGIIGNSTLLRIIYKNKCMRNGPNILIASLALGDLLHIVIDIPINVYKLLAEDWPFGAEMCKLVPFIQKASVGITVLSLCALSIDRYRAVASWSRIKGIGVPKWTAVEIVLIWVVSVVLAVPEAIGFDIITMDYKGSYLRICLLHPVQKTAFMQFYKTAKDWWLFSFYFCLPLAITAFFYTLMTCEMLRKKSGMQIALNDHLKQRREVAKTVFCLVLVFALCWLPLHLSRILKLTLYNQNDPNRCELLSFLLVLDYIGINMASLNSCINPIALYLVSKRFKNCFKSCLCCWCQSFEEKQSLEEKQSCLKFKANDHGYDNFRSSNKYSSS

[7] = species on record: Homo sapiens; assay: Functional selectivity was assessed in a neutrophil chemotaxis assay using N-formyl-methionyl-leucyl-phenylalanine (FMLP); assay type: organism-based
[8] = biological target: Somatostatin receptor (Mus musculus) (UniProt P30935+O08858+P30875+P30873+P49660); assay: Displacement of [125I]-TYR somatostatin from At-T-20 (mouse pituitary) cell membrane expressing somatostatin receptor; assay type: cell membranes; details: Pituitary gland cell; concentration not given here
Chain of Somatostatin receptor (Mus musculus) (P30935 whole entry): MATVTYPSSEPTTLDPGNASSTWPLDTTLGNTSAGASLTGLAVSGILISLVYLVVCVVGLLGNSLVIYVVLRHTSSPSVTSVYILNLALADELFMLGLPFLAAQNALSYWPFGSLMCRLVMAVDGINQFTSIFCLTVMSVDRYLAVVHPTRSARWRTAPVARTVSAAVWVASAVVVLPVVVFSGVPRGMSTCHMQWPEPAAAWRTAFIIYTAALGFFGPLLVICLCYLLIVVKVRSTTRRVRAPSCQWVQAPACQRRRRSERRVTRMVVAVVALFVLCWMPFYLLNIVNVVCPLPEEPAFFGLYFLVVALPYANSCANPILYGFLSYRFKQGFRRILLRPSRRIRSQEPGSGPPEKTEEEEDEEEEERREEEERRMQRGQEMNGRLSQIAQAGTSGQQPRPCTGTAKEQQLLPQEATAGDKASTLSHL
Chain of Somatostatin receptor (Mus musculus) (O08858 whole entry): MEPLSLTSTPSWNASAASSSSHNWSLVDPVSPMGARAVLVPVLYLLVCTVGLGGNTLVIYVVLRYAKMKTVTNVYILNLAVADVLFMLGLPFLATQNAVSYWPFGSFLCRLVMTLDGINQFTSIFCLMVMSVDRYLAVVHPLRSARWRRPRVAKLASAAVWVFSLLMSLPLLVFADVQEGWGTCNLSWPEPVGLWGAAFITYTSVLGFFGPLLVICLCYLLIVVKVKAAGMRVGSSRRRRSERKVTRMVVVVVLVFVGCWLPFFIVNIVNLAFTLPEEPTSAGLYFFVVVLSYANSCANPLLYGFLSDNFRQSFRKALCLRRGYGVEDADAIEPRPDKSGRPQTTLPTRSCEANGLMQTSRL
Chain of Somatostatin receptor (Mus musculus) (P30875 whole entry): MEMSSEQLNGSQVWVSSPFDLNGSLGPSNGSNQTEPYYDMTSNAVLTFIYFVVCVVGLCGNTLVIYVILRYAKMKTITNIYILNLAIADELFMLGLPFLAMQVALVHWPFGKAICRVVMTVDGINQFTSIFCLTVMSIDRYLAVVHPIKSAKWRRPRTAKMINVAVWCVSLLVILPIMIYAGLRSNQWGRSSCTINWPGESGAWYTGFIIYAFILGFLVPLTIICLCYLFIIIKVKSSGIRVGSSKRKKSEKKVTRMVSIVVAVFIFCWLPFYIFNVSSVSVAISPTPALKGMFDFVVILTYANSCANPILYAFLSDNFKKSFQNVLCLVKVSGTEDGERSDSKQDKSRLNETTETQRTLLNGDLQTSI
Chain of Somatostatin receptor (Mus musculus) (P30873 whole entry): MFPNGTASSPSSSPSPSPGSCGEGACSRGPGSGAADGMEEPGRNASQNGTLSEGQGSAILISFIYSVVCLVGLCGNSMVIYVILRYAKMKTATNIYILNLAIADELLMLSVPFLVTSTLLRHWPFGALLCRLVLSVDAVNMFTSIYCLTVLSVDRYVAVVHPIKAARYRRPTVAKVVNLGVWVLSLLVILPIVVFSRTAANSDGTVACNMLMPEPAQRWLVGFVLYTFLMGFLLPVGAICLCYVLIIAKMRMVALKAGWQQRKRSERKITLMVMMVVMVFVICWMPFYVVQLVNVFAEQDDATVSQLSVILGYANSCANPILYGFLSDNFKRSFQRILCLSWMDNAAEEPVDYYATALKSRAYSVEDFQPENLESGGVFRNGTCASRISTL
Chain of Somatostatin receptor (Mus musculus) (P49660 with tags, fused parts or gaps): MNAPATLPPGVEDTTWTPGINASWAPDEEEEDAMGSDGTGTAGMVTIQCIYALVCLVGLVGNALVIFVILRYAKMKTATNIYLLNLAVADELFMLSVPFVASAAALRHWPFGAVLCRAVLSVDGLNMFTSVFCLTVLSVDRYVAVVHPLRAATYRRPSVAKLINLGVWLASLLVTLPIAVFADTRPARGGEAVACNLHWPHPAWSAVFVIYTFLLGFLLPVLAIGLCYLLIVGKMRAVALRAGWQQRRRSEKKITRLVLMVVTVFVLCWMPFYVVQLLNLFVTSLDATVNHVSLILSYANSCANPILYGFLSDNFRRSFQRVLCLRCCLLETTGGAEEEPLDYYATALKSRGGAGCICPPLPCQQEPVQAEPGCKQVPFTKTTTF

[9] = biological target: T6, Gastrin/cholecystokinin type B receptor (Homo sapiens) (UniProt P32239); assay: Displacement of [3H]CCK-8 from NIH3T3 (mouse embryo cell membrane ) expressing human cholecystokinin CCKB receptor; assay type: cell membranes; parameters: concentration or dose not given beside the values; details: concentration not given here
T6 sequence (whole entry): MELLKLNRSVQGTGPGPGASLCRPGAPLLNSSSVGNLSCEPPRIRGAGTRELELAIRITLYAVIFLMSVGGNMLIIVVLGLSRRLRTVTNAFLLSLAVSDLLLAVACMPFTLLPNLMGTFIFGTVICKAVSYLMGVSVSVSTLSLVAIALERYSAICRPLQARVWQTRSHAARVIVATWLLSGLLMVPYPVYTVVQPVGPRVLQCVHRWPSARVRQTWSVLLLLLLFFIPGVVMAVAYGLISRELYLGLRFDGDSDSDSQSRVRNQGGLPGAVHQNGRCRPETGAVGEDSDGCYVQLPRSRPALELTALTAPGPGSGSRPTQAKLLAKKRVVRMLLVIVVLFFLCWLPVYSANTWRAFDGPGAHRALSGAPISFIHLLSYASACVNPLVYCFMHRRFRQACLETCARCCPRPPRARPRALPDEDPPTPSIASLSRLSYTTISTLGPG

[10] = biological target: T7, Calcitonin receptor (Homo sapiens) (UniProt P30988); assay: Displacement of [125I]calcitonin from T-47D (human breast cancer) cell membrane expressing human calcitonin receptor; assay type: cell membranes; details: T47D; concentration not given here
T7 sequence (whole entry): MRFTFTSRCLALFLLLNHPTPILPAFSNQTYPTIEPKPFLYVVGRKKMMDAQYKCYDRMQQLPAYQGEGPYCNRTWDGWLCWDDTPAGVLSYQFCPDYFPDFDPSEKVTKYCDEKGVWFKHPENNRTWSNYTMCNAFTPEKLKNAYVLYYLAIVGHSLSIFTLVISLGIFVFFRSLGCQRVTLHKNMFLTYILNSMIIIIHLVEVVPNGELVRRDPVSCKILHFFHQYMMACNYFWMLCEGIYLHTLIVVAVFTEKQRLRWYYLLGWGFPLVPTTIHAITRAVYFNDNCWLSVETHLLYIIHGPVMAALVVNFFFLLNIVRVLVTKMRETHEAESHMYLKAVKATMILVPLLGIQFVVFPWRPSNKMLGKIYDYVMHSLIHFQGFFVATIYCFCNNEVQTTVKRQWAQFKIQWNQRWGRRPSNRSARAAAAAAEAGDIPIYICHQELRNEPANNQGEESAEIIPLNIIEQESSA

[11] = biological target: T1, C-X-C chemokine receptor type 2; assay: Compound binding was evaluated using an SPA assay with recombinant human [125I]IL-8 and membranes prepared from Sf9 cells expressing human C-X-C chemokine receptor type 2; assay type: cell membranes

Structure (SMILES) | IC50 [1] [nM] | IC50 [2] [nM] | inhibition [3] [%] | inhibition [4] [%] | inhibition [5] [%] | inhibition [6] [%] | IC50 [7] [nM] | inhibition [8] [%] | inhibition [9] [%] | inhibition [10] [%] | IC50 [11] [nM]
O=C(NC(c1ccccc1)c1ccccc1)c1ccc(Cl)[n+]([O-])c1 | 830 | > 20000 | – | – | – | – | – | – | – | – | –
COc1ccc(NC(=O)c2ccc(Cl)[n+]([O-])c2)cc1 | > 20000 | > 20000 | – | – | – | – | – | – | – | – | –
CS(=O)(=O)c1ccc(C(=O)Nc2ccc(F)cc2)c[n+]1[O-] | 2000 | 130 | 58 | 97 | 73 | 8 | 9600 | 60 | 40 | – | –
O=C(Nc1ccc(F)cc1)c1ccc(Cl)[n+]([O-])c1 | 1100 | 1000 | 15 | 85 | 68 | 14 | > 40000 | -2 | 11 | -1 | –
N#Cc1ccc(NC(=O)Nc2ccccc2Br)c2nn[nH]c12 | 10 | – | – | – | – | – | – | – | – | – | –
O=C(Nc1ccccc1O)c1ccc(Cl)[n+]([O-])c1 | 4200 | > 20000 | – | – | – | – | – | – | – | – | –
O=C(O)c1cccc(S(=O)(=O)c2ccc(C(=O)Nc3ccc(F)cc3)c[n+]2[O-])c1 | > 20000 | 32 | – | – | – | – | – | – | – | – | –
CC(C)S(=O)(=O)c1ccc(C(=O)Nc2ccc(F)cc2)c[n+]1[O-] | 2000 | 400 | – | – | – | – | – | – | – | – | –
O=C(Nc1ccc(F)cc1)c1ccc(S(=O)(=O)C2CCCC2)[n+]([O-])c1 | 1900 | 460 | -1 | 60 | 8 | -2 | – | – | 1 | 4 | –
CC(C)(C)c1ccc(NC(=O)c2ccc(Cl)[n+]([O-])c2)cc1 | 1300 | > 20000 | – | – | – | – | – | – | – | – | –
O=C(Nc1ccc(F)cc1)c1ccc(S(=O)(=O)Cc2ccccc2)[n+]([O-])c1 | 1000 | 280 | 32 | 77 | 9 | 8 | 13000 | 38 | 29 | – | –
O=C(NCc1ccc(F)cc1)c1ccc(Cl)[n+]([O-])c1 | > 20000 | > 20000 | – | – | – | – | – | – | – | – | –
O=C(Nc1ccc(F)cc1)c1ccc(S(=O)(=O)c2ccccc2)[n+]([O-])c1 | > 20000 | 90 | – | – | – | – | – | – | – | – | –
CCS(=O)(=O)c1ccc(C(=O)Nc2ccc(F)cc2)c[n+]1[O-] | 3300 | 130 | 41 | 97 | 8 | 15 | 13300 | – | 14 | 3 | –
O=C(NC1CCCCC1)c1ccc(Cl)[n+]([O-])c1 | > 20000 | > 20000 | – | – | – | – | – | – | – | – | –
O=C(Nc1ccc(I)cc1)c1ccc(Cl)[n+]([O-])c1 | 500 | > 20000 | – | – | – | – | – | – | – | – | –
CCN(CC)CCCCNc1nc2cc(Cl)c(Cl)cc2nc1-c1ccc(-c2cccs2)s1 | 170 | – | – | – | – | – | – | – | – | – | 110
